Measurements as given in patent US20240366612A1, “COMPOUNDS AND METHODS FOR MODULATING NUCLEIC ACID SPLICING” (REMIX THERAPEUTICS INC., priority 2021, published 2024).
pIC50: −log10 of the molar value. Counter-ions that a name gives are not always drawn.

Tests used:
HTT CJ mRNA = assay: Gene panel canonical junction qPCR assay, HTT; type: cell-based; settings: Homo sapiens, larger gene panel, read-out: HTT IC50 (decrease in CJ mRNA levels)
Procedure: Compounds described herein were used to modulate RNA transcript abundance in cells. The expression of a target mRNA was measured by detecting the formation of an exon-exon junction in the canonical transcript (CJ). A compound mediated exon-inclusion event was detected by observing an increase in formation of a new junction with an alternative exon (AJ). Real-time qPCR assays were used to detect these splicing switches and interrogate the potency of various compounds towards different target genes. A high-throughput real time quantitative PCR (RT-qPCR) assay was developed to measure these two isoforms of the mRNA (CJ and AJ) for exemplary genes, such as HTT, SMN2, and MYB, together with a control housekeeping gene, GAPDH or GUSB or PPIA, used for normalization. Briefly, the A673 or K562 cell line was treated with various compounds described herein (e.g., compounds of Formula (I)). After treatment, the levels of the HTT, MYB, or SMN2 mRNA targets were determined from each sample of cell lysate by cDNA synthesis followed by qPCR.
The A673 cell line was cultured in DMEM with 10% FBS. Cells were diluted with full growth media and plated in a 96-well plate (15,000 cells in 100 ul media per well). The plate was incubated at 37° C. with 5% CO2 for 24 hours to allow cells to adhere. An 11-point 3-fold serial dilution of the compounds was made in DMSO then diluted in media in an intermediate plate. Compounds were transferred from the intermediate plate to the cell plate with the top dose at a final concentration of 10 uM in the well. Final DMSO concentration was kept at or below 0.25%. The cell plate was returned to the incubator at 37° C. with 5% CO2 for an additional 24 hours.
The K562 cell line was cultured in IMDM with 10% FBS. For K562, cells were diluted with full growth media and plated in either a 96-well plate (50,000 cells in 50 uL media per well) or a 384-well plate (8,000-40,000 cells in 45 uL media per well). An 11-point 3-fold serial dilution of the compounds were made in DMSO then diluted in media in an intermediate plate. Compound was transferred from the intermediate plate to the cell plate with the top dose at a final concentration of 10 uM in the well. Final DMSO concentration was kept at or below 0.25%. Final volume was 100 uL for 96-well plate and 50 uL for 384-well plate. The cell plate was then placed in an incubator at 37° C. with 5% CO2 for 24 hours.
The data analysis was performed by first determining the ΔCt vs the housekeeper gene. This ΔCt was then normalized against the DMSO control (ΔΔCt) and converted to RQ (relative quantification) using the 2^(−ΔΔCt) equation. The RQ were then converted to a percentage response by arbitrarily setting an assay window of 3.5 and 4.0 ΔCt for HTT-CJ and MYB-CJ respectively and an assay window of 9 and 3 ΔCt for HTT-AJ and MYB-AJ in 96 well format (50,000 K562 cells/well and 15,000 A673 cells per well) and an assay window of 3 and 4 ΔCt for HTT-CJ and MYB-CJ respectively and an assay window of 5 and 3 ΔCt for HTT-AJ and MYB-AJ respectively in 384 well format (8,000 K562 cells/well example). […] The percentage response was then fitted to the 4 parametric logistic equation to evaluate the concentration dependence of compound treatment. The increase in AJ mRNA is reported as AC50 (compound concentration having […] in AJ increase) while the decrease in CJ mRNA levels is reported as IC50 (compound concentration having 50% response in CJ decrease).
Additional studies were carried out for a larger panel of genes using the protocol provided above. The junction between flanking upstream and downstream exons was used to design canonical junction qPCR assays. At least one of the forward primer, reverse primer or the CY5-labeled 5′ nuclease probe (with 3′ quencher such as ZEN/Iowa Black FQ) was designed to overlap with the exon junction to capture the CJ mRNA transcript. […]

[1] = test system: HiBiT-tagged HTT protein in K562 cells; assay: HiBiT protein abundance assay, HTT; type: cell-based, human; settings: HiBiT-modified K562 cells, 24 hours, luminescence
Procedure: Compounds described herein were used to screen for effects on quantitative protein abundance using a HiBit assay system (Promega). Quantitative protein abundance was determined by measuring the protein levels of HiBit-tagged protein targets expressed in cell culture via luminescence using the Nano-Glo HiBiT Lytic Detection System, which uses a split complementation assay format to reconstitute NanoBiT enzyme to generate a luminescent signal. A protein abundance assay was developed such that endogenous protein targets could be modified with the HiBiT peptide tag and their abundance could be assessed after compound treatment. Briefly, K562 cell lines containing a HiBiT-modification were treated with various compounds described herein (e.g., compounds of Formulas (I), (II), or (III)). After treatment for 24 hours, the protein abundance of a specific target was determined by measuring luminescence.
• Promega Nano-Glo HiBiT Lytic Detection System (cat #N3030) • Corning 384-well TC-treated microplates (cat #3570) • Synthego Engineered Cells Knock-In Clones
Cells were maintained in IMDM with 10% FBS. Before the assay, cells were diluted with […] growth media (IMDM+1% FBS media) and were seeded in a 384-well plate at a density of 10000 cells/well (for each cell line listed in Table 5). Each compound was prepared as a 10-point 3-fold serial dilution in DMSO with the top dose at a final concentration of 10 μM in the well. Unmodified K562 cells were added at the previously specified density with DMSO to serve as an assay baseline and positive control (PC) and DMSO only with the respective modified cell lines was added to the negative control (NC) columns. Final DMSO concentration was kept at or below 0.25%. Treated cell plates were placed in an incubator at 37° C. with 5% CO2 for 24 hours. After 24 hours, 25 μL of Complete HiBit Lytic reagent was added to each well at room temperature (e.g. one plate requiring 10 mL Lytic Buffer, 100 μL LgBiT Protein, 200 μL Lytic Substrate), shaken for 5 minutes at 600 RPM, then left to sit for 10 minutes for signal to stabilize before reading on a Spark Cyto plate reader (Tecan) with a 500 ms measurement time.
To determine compound effects on protein abundance of each target in Table 5, the percent response for each respective cell line was calculated at each compound concentration as follows:
For the normalized response at each concentration, a four-parameter logistical regression was fit to the data and the response was interpolated at the 50% value to determine a concentration for protein abundance at 50% (IC50) the untreated control.

SMILES	pIC50 (HTT CJ mRNA)	pIC50 [1]
Cc1cn2cc(-c3nn4c(=O)cc(N5CCN(C)C6(CC6)C5)nc4s3)cc(F)c2n1 [Compound 218, 2-(8-fluoro-2-methylimidazo[1,2-a]pyridin-6-yl)-7-(4-methyl-4,7-diazaspiro[2.5]octan-7-yl)-5H-[1,3,4]thiadiazolo[3,2-a]pyrimidin-5-one]	5.00 to 6.00	5.00 to 6.00
Cn1cc2cc(-n3cnc4nc(N5CCNCC5)sc4c3=O)ccc2n1 [Compound 225, 6-(2-methyl-2H-indazol-5-yl)-2-(piperazin-1-yl)thiazolo[4,5-d]pyrimidin-7(6H)-one]	< 5.00	< 5.00
Cc1cn2cc(-n3cnc4nc(N5CCNCC5)sc4c3=O)cc(F)c2n1 [Compound 226, 6-(8-fluoro-2-methylimidazo[1,2-a]pyridin-6-yl)-2-(piperazin-1-yl)thiazolo[4,5-d]pyrimidin-7(6H)-one]	6.00 to 7.00	6.00 to 7.00
Cc1cn2cc(-n3cnc4nc(N5CCN(C)CC5)sc4c3=O)cc(F)c2n1 [Compound 228, 6-(8-fluoro-2-methylimidazo[1,2-a]pyridin-6-yl)-2-(4-methylpiperazin-1-yl)thiazolo[4,5-d]pyrimidin-7(6H)-one]	5.00 to 6.00	5.00 to 6.00
Cc1cn2cc(-n3cnc4nc(N5CCNCC5)sc4c3=O)cc(C(F)(F)F)c2n1 [Compound 229, 6-(2-methyl-8-(trifluoromethyl)imidazo[1,2-a]pyridin-6-yl)-2-(piperazin-1-yl)thiazolo[4,5-d]pyrimidin-7(6H)-one]	< 5.00	< 5.00
Cc1cn2cc(-n3cnc4nc(N5CCN(C)CC5)sc4c3=O)cc(C(F)(F)F)c2n1 [Compound 230, 6-(2-methyl-8-(trifluoromethyl)imidazo[1,2-a]pyridin-6-yl)-2-(4-methylpiperazin-1-yl)thiazolo[4,5-d]pyrimidin-7(6H)-one]	< 5.00	< 5.00
Cc1cn2nc(-c3nc4ncn(C5CCNCC5)c(=O)c4s3)cc(C)c2n1 [Compound 231, 2-(2,8-dimethylimidazo[1,2-b]pyridazin-6-yl)-6-(piperidin-4-yl)thiazolo[4,5-d]pyrimidin-7(6H)-one]	6.00 to 7.00	6.00 to 7.00
Cc1cn2cc(-c3nc4ncn(C5CCNCC5)c(=O)c4s3)cc(F)c2n1 [Compound 232, 2-(8-fluoro-2-methylimidazo[1,2-a]pyridin-6-yl)-6-(piperidin-4-yl)thiazolo[4,5-d]pyrimidin-7(6H)-one]	> 7.00	> 7.00
Cc1cc(-c2nc3ncn(C4CCNCC4)c(=O)c3s2)cc2cn(C)nc12 [Compound 233, 2-(2,7-dimethyl-2H-indazol-5-yl)-6-(piperidin-4-yl)thiazolo[4,5-d]pyrimidin-7(6H)-one]	> 7.00	> 7.00
Cc1cc(-c2nc3ncn(C4CCN(C)CC4)c(=O)c3s2)cc2cn(C)nc12 [Compound 234, 2-(2,7-dimethyl-2H-indazol-5-yl)-6-(1-methylpiperidin-4-yl)thiazolo[4,5-d]pyrimidin-7(6H)-one]	6.00 to 7.00	6.00 to 7.00
Cc1cn2cc(-c3cc4ncn(C5CCNCC5)c(=O)c4s3)cc(F)c2n1 [Compound 235, 6-(8-fluoro-2-methylimidazo[1,2-a]pyridin-6-yl)-3-(piperidin-4-yl)thieno[3,2-d]pyrimidin-4(3H)-one]	> 7.00	6.00 to 7.00
Cc1cc(-c2cc3ncn(C4CCNCC4)c(=O)c3s2)cc2cn(C)nc12 [Compound 236, 6-(2,7-dimethyl-2H-indazol-5-yl)-3-(piperidin-4-yl)thieno[3,2-d]pyrimidin-4(3H)-one]	> 7.00	> 7.00
Cc1cc(-c2cc3ncn(C4CCN(C)CC4)c(=O)c3s2)cc2cn(C)nc12 [Compound 237, 6-(2,7-dimethyl-2H-indazol-5-yl)-3-(1-methylpiperidin-4-yl)thieno[3,2-d]pyrimidin-4(3H)-one]	6.00 to 7.00	6.00 to 7.00
Cc1cn2nc(-c3cc4ncn(C5CCNCC5)c(=O)c4s3)cc(C)c2n1 [Compound 238, 6-(2,8-dimethylimidazo[1,2-b]pyridazin-6-yl)-3-(piperidin-4-yl)thieno[3,2-d]pyrimidin-4(3H)-one]	6.00 to 7.00	6.00 to 7.00
Cc1cn2nc(-c3cc4ncn(C5CCN(C)CC5)c(=O)c4s3)cc(C)c2n1 [Compound 239, 6-(2,8-dimethylimidazo[1,2-b]pyridazin-6-yl)-3-(1-methylpiperidin-4-yl)thieno[3,2-d]pyrimidin-4(3H)-one]	5.00 to 6.00	5.00 to 6.00
Cc1cn2cc(-c3nc4sc(C5CCNCC5)cc4c(=O)[nH]3)cc(F)c2n1 [Compound 250, 2-(8-fluoro-2-methylimidazo[1,2-a]pyridin-6-yl)-6-(piperidin-4-yl)thieno[2,3-d]pyrimidin-4(3H)-one]	6.00 to 7.00	6.00 to 7.00
Cc1nc(-c2nc3ncn(C4CCNCC4)c(=O)c3s2)cc2cn(C)nc12 [Compound 251, 2-(2,7-dimethyl-2H-pyrazolo[3,4-c]pyridin-5-yl)-6-(piperidin-4-yl)thiazolo[4,5-d]pyrimidin-7(6H)-one]	5.00 to 6.00	5.00 to 6.00
Cn1cc2cc(-c3nc4ncn(C5CCNCC5)c(=O)c4s3)c(O)cc2n1 [Compound 253, 2-(6-hydroxy-2-methyl-2H-indazol-5-yl)-6-(piperidin-4-yl)thiazolo[4,5-d]pyrimidin-7(6H)-one, hydrochloride]	5.00 to 6.00	5.00 to 6.00
Cc1cn2cc(-c3nc4sc(C5CCN(C)CC5)cc4c(=O)[nH]3)cc(F)c2n1 [Compound 256, 2-(8-fluoro-2-methylimidazo[1,2-a]pyridin-6-yl)-6-(1-methylpiperidin-4-yl)thieno[2,3-d]pyrimidin-4(3H)-one]	< 5.00	< 5.00
Cn1cc2cc(-c3cc4ncn(C5CCNCC5)c(=O)c4s3)cc(F)c2n1 [Compound 257]	5.00 to 6.00	5.00 to 6.00
